Measured values from PMC12610573, “New Chlormequat-Based Ionic Liquids as Plant Resistance Inducers” (Molecules, 2025).

Key:
[1] = Solubility tests in representative solvents (Vogel protocol); conditions: 25 °C; for solubility: thermodynamic from solid
Experimental: The solubilities of the prepared ILs in ten representative solvents were determined according to the protocols from Vogel’s Textbook of Practical Organic Chemistry. The solvents chosen for the study were arranged in order of descending value of their Snyder polarity index: water—9.0, methanol—6.6, acetone—5.1, isopropanol—4.3, toluene—2.3, and hexane—0.0.

[2] = tested on: radish (Raphanus sativus) sprouts; test: Phytotoxicity test on radish sprouts; format: in vivo; conditions: for Mass of 25 Sprouts: radish, 5 days, UTC 3.09 g; for Reduction in Sprout Mass: compared with untreated control
Experimental: Twenty five seeds of radish (Raphanus sativus) were placed on a filter tissue in a Petri dish. […] Then, sprouts were weighted. All variants of treatment were tested together, with 3 replications (plates) in each of 2 cycles performed. Results were subjected to statistical analysis as described in Section 4.8.
(§1) Statistical significance of the effect of the treatments of plants with tested compounds on the phytotoxicity and SAR induction was assessed with the ANOVA test performed using the Statistica program StatSoft with software version 9.1 (StatSoft Sp. z o.o., Kraków, Poland). The statistical assumptions of normality and homogeneity of variances were verified prior to conducting the ANOVA tests. Differences between the means were estimated with Tukey’s HSD test at the significance level of p = 0.05.

[3] = tested on: Tobamovirus tabaci (tobacco mosaic virus, TMV) on Nicotiana tabacum cv. Xanthi; test: SAR induction assay: necrotic area after TMV inoculation of sprayed tobacco; format: in vivo; conditions: for SAR Induction (percentage of necrotic area on leaves): TMV inoculation after 7 days, read 7 days later, UTC 34.54; for Reduction in Necrotic Area: compared with untreated control plants; for Percentage of necrotic spot coverage (leaf shown in supplementary figure): single leaf image
Experimental: Plants of Nicotiana tabacum cv. Xanthi were grown under greenhouse conditions at 25 °C and 50% relative humidity, under natural daylight during the May–August growing season, with a natural photoperiod. The plants were sprayed with solutions containing the tested compounds.
In all experiments, the TMV SL-1 isolate Tobamovirus (TMV) was used. To obtain a viral inoculum, Nicotiana tabacum cv. Samsun plants were sap-inoculated with previously virus-infected plant material. After the appearance of disease symptoms on the infected plants (leaf mosaic), the virus was isolated by sucrose density gradient centrifugation with 0.01 M Tris-HCl, pH 7.0, to prepare the infectious inoculum. The concentration of virus in the obtained preparation was determined spectrophotometrically. The samples of TMV were stored at −20 °C until use.
The tested active substances at a given concentration were sprayed on tobacco plants with three fully developed leaves. The volume of working solution used was equal to 10 mL per plant. The compounds were dissolved in a water/propylene glycol solution (95/5, v/v). The plants of the untreated control variant were sprayed with a water/propylene glycol solution (95/5, v/v) that was used for the preparation of solutions of the tested compounds. After seven days, the plants were mechanically inoculated using purified viral preparations (0.01 ng/mL as described in [34]).
The plants were inoculated with the TMV inoculum at a concentration of 3.8 × 10^−4 ng per leaf. For each variant of treatment, 3 plants were sprayed, and 3 leaves of each plant were analyzed. The entire experiment was performed in 2 replicates. Necrotic areas on the leaves were determined using ImageJ software.
The surface of a leaf or an area with necrotic spots is represented by a set of pixels in the image, which are counted by the program. Reduction in necrotic area (ISAR) is expressed by the following formula:(1) ISAR=100−(At/Ac∗100) where At is the ratio of the area of necrotic spots caused by viral infection that appeared on the leaf treated with the test substance to the whole area of the leaf; Ac is the ratio of the area of the necrotic spots caused by viral infection that appeared on the leaf of the control plant to the whole area of the leaf.
as §1

[4] = Thermogravimetric analysis (TGA), thermal stability; conditions: TGA under nitrogen, 10 °C/min; for Thermal Stability T5%onset: 5% weight loss onset; for Thermal Stability Tonset: decomposition onset
Experimental: TGA was performed on a TGA Q50 (Texas Instruments, Dallas, TX, USA) under nitrogen. Samples (5–10 mg) were heated from 25 °C to 500 °C at 10 °C/min with an isothermal step at 85 °C for 10 min. T5%onset and Tonset values were recorded.

[5] = topical, read-out: Reduction in Necrotic Area

Row | Compound | Solubility in Hexane ([1]; Snyder polarity index 0.0) | Solubility in Toluene ([1]; Snyder polarity index 2.3) | Solubility in Isopropanol ([1]; Snyder polarity index 4.3) | Solubility in Acetone ([1]; Snyder polarity index 5.1) | Solubility in Methanol ([1]; Snyder polarity index 6.6) | Solubility in Water ([1]; Snyder polarity index 9.0) | Mass of 25 Sprouts ([2]; 125 mg/L) | Reduction in Sprout Mass ([2]; 250 mg/L) [%] | Mass of 25 Sprouts ([2]; 250 mg/L) | SAR Induction (percentage of necrotic area on leaves) ([3]; 125 mg/L spray) | Reduction in Necrotic Area ([3]; 125 mg/L) [%] | SAR Induction (percentage of necrotic area on leaves) ([3]; 250 mg/L spray) | Reduction in Necrotic Area ([3]; 250 mg/L) [%] | Thermal Stability T5%onset [4] [°C] | Thermal Stability Tonset [4] [°C] | Reduction in Sprout Mass ([2]; 125 mg/L) [%] | further results
1 | C[N+](C)(C)CCCl.O=C([O-])c1ccc(Cl)cc1O [[CC][4-ClSal]] | − (insoluble) | − (insoluble) | +/− (of limited solubility) | − (insoluble) | + (soluble) | +/− (of limited solubility) | 2.84 hi D g | 19.63 | 2.48 ij C g | 12.47 bc B % | 63.9 | 7.85 bcde A % | 77.3 | 205.3 | 137.2 |  | 
2 | C[N+](C)(C)CCCl.O=C([O-])c1cc(Cl)ccc1O [[CC][5-ClSal]] | − (insoluble) | − (insoluble) | +/− (of limited solubility) | − (insoluble) | + (soluble) | +/− (of limited solubility) | 2.50 efg D | 30.15 | 2.16 fgh C | 3.15 a AB % | 90.9 | 1.58 a A % | 95.4 | 217.1 | 138.5 | 19.15 | Percentage of necrotic spot coverage (leaf shown in supplementary figure) ([3]; 125 mg/L): 2.28%; Percentage of necrotic spot coverage (leaf shown in supplementary figure) ([3]; 250 mg/L): 1.15%; Difference in percentage reduction in leaf necrotic area between 125 mg/L and 250 mg/L ([3]; in vivo): approximately 4.5 percentage points
3 | C[N+](C)(C)CCCl.O=C([O-])c1cc(Cl)nc(Cl)c1 [[CC][Ina]] | − (insoluble) | − (insoluble) | +/− (of limited solubility) | − (insoluble) | + (soluble) | + (soluble) | 2.63 fgh D | 28.21 | 2.22 gh C | 14.80 cd AB % | 57.2 | 12.52 ef A % | 63.8 | 177.2 |  | 15.05 | 
4 | C[N+](C)(C)CCCl.O=C([O-])c1ccccc1O [[CC][Sal], chlormequat salicylate] |  |  |  |  |  |  | 2.82 hi C g | 26.91 | 2.26 hi B g | 19.99 de B % |  | 12.39 ef A % |  | 186.1 | 93.3 | 8.79 | solubility ([1]; organic solvent or mixture, Solubility in Acetone, Snyder polarity index 5.1): < 33.3 mg/mL; solubility ([1]; organic solvent or mixture, Solubility in Hexane, Snyder polarity index 0.0): < 33.3 mg/mL; solubility ([1]; organic solvent or mixture, Solubility in Isopropanol, Snyder polarity index 4.3): 33.3 to 100 mg/mL; solubility ([1]; organic solvent or mixture, Solubility in Methanol, Snyder polarity index 6.6): > 100 mg/mL; solubility ([1]; organic solvent or mixture, Solubility in Toluene, Snyder polarity index 2.3): < 33.3 mg/mL; solubility ([1]; water, Solubility (water)): > 100 mg/mL; solubility ([1]; water, Solubility in Water, Snyder polarity index 9.0): > 100 mg/mL; pest or weed control at 125 µg/mL [3, 5]: 42.1%; pest or weed control at 250 µg/mL [3, 5]: 64.1%
